Data on twelve compounds can be found in patent US7015345B2, “Propionic acid derivatives” (Asahi Kasei Pharma Corporation, priority 2002, dated 2006).

The test system of one experiment is db/db mice. Kind of experiment: Hypoglycemic action and triglyceride-decreasing action in db/db mice. The class given is in vivo. The following applies: Mus musculus, 360 h; for inhibition in vivo at 1 mg/kg: 1 mg/kg oral once a day for 2 weeks; for inhibition in vivo at 3 mg/kg: 3 mg/kg oral once a day for 2 weeks; for inhibition in vivo at 10 mg/kg: 10 mg/kg oral once a day for 2 weeks. The protocol:
Test for Measuring Hypoglycemic Action and Triglyceride-Decreasing Action in db/db Mice
Each of test compounds was administered once a day for 2 weeks to db/db mice genetically presenting pathological conditions of obesity, hyperglycemia, and hyperlipidemia. Blood was collected from the mice immediately before the start of administration of a test sample or a vehicle on the first day. Plasma glucose levels and triglyceride levels were measured, and the mice were divided into groups so that average glucose levels and triglyceride levels gave no significant value among the groups. All the test samples were suspended in a 0.5% methylcellulose (MC) solution and orally administered. For a vehicle-administered control group, a 0.5% MC solution was orally administered. Blood samples were collected from the mice on the 15th day, and plasma glucose levels and triglyceride levels were measured. A hypoglycemic rate and triglyceride-reducing rate were calculated by using the following equations.

Experiment [1] concerns hamsters fed with high cholesterol diet. The experiment can be described thus: Total plasma cholesterol and non-HDL cholesterol reducing action in hamster fed high cholesterol diet. The class given is in vivo. The following applies: Mesocricetus auratus, 192 h, hamsters on high cholesterol diet, 10 mg/kg oral once a day for one week, plasma on 8th day. The protocol:
Test for Measuring Total Plasma Cholesterol Reducing Action and Non-HDL Cholesterol (VLDL Cholesterol+LDL Cholesterol) Reducing Action in Hamster
A test compound (10 mg/kg) was administered once a day for one week to hamsters fed with high cholesterol diet (CE-2 (Clea Japan)+1% cholesterol+10% coconut oil) for five days. The plasma cholesterol level and the plasma HDL cholesterol level were measured immediately before the start of the administration of the test sample or vehicle on the 1st day, and the hamsters were divided into groups so that the groups gave no significant value of initial levels of the both measurements. Each of the test samples was dissolved in a 0.5% methylcellulose (MC) solution and orally administered. A 0.5% methylcellulose (MC) solution was orally administered to the hamsters as a vehicle control group. A blood sample was collected on the 8th day, and the plasma cholesterol level and the plasma HDL cholesterol level were measured. The total cholesterol reducing rate was obtained by using the following equation. [formula]
Further, non-HDL cholesterol level (LDL cholesterol level+VLDL cholesterol level) was calculated as (Total cholesterol level−HDL cholesterol level), and the reducing rate thereof was calculated by using the following equation. [formula]

The next experiment relates to Zucker rats. Kind of experiment: Liver triglyceride contents in Zucker rats. The following applies: Rattus norvegicus, 336 h, read-out: Triglyceride reducing rate (%); for inhibition in vivo at 1 mg/kg: 1 mg/kg once a day for 2 weeks. The class given is in vivo. The protocol: Measurement of Liver Triglyceride Contents in Zucker Rats
To Zucker rats, a vehicle (0.5% MC), a compound of the present invention or fenofibrate (Sigma) was administered once a day for 2 weeks. The livers were isolated on the next day of the final administration, and amounts of triglyceride in the livers were determined. Triglyceride was extracted by adding 5 ml of a mixture of hexane and isopropanol (2:1, V/V) to 100 mg of liver, homogenizing the liver using Polytron homogenizer, then sufficiently stirring and centrifuging the homogenate at 2000 g for 10 minutes at room temperature. The amount of triglyceride in the solution layer was measured.

In experiment [2] the test system is 3T3-L1 precursor adipocytes. Kind of experiment: Uptake of glucose by adipocytes ([3H]-2-deoxy-glucose uptake). Format: cell-based. The following applies: Mus musculus, 100 nM compound, 4 to 5 days culture, 100 nM insulin stimulation, relative to 10 μM rosiglitazone taken as 100%, read-out: Amount of glucose uptake (%). The protocol:
(§1) Test for Uptake of Glucose By Adipocytes and Test for Triglyceride Accumulation in Adipocytes
According to the method of Mukherjee et al. (Mol. Endocrinol, 14, 1425–1433, 2000), a glucose uptake experiment was performed by using cultured cells. 3T3-L1 precursor adipocytes were cultured for 4 to 5 days in the presence of a test compound, and then stimulated with 100 nM insulin, and then the amount of [^3H]-2-deoxy-glucose (2DG) uptake by the cells was measured. The amount of glucose uptake provided after the treatment with 100 nM of each compound was measured, and represented as a relative value based on the amount of glucose uptake provided after the treatment with 10 μM rosiglitazone, which was taken as 100%.

The subject of experiment [3] is 3T3-L1 precursor adipocytes. Kind of experiment: Triglyceride accumulation in adipocytes. The class given is cell-based. The following applies: Mus musculus, 100 nM compound, 4 to 5 days culture, relative to 10 μM rosiglitazone taken as 100%, read-out: Amount of accumulated triglyceride (%). The protocol:
as §1
Further, 3T3-L1 precursor adipocytes were cultured for 4 to 5 days in the presence of a test compound, and then the amount of triglyceride in the cells was measured according to the method of Shibata T et al. (Eur. J. Pharmacol., 364 (2–3), 211–219, 1999). The amount of accumulated triglyceride provided after the treatment with 100 nM of each compound was measured, and represented as a relative value based on the amount of accumulated triglyceride provided after the treatment with 10 μM rosiglitazone, which was taken as 100%.

[4] abbreviates: plasma glucose on 15th day vs vehicle, read-out: Hypoglycemic rate (%).
The mark [5] stands for this setting: plasma triglyceride on 15th day vs vehicle, read-out: Triglyceride reducing rate (%).
Where [6] appears, read: non-HDL = total cholesterol - HDL cholesterol, read-out: Non-HDL cholesterol reducing rate (%).
The mark [7] stands for this setting: read-out: Total cholesterol reducing rate (%).

Like-named read-outs stand apart in the source and are kept apart here.

For `CCCCCCCN(CCOc1ccc(CC(OCC)C(=O)O)cc1)C(=O)OC` (stereo not drawn) [Example 56, 2-ethoxy-3-{4-[2-(N-heptyl-N-methoxycarbonylamino)ethoxy]phenyl}propionic acid], the inhibition in vivo at 1 mg/kg turned out to be 26% in the experiment with db/db mice (setting [4]), 49% in the experiment with db/db mice (setting [5]) and 42% in the experiment with Zucker rats. Moreover, the figures for the inhibition in vivo at 10 mg/kg in experiment [1] (setting [6]) and in experiment [1] (setting [7]) were 40% and 39%, respectively. The Emax at 0.1 µM in experiment [2] is 90%; in experiment [3], 85%.
For `CCCCOCCN(CCOc1ccc(CC(OC(C)C)C(=O)O)cc1)C(=O)OCC(C)C` (stereo not drawn) [Example 132, 3-(4-{2-[N-(2-butoxyethyl)-N-isobutoxycarbonylamino]ethoxy}phenyl)-2-isopropoxypropionic acid], the figures for the inhibition in vivo at 1 mg/kg in the experiment on db/db mice (setting [4]), in the experiment on db/db mice (setting [5]) and with Zucker rats were 7%, 14% and 39%, respectively. For the same compound, the inhibition in vivo at 10 mg/kg in experiment [1] (setting [6]) came out at 20%; in experiment [1] (setting [7]), 18%. For the same compound, the Emax at 0.1 µM amounted to 96% in experiment [2] and 97% in experiment [3].
As for `CCCCOCCN(CCOc1ccc(CC(OCC)C(=O)O)cc1)C(=O)OCCC` (stereo not drawn) [Example 115, 3-(4-{2-[N-(2-butoxyethyl)-N-propoxycarbonylamino]ethoxy}phenyl)-2-ethoxypropionic acid], the inhibition in vivo at 3 mg/kg in the experiment on db/db mice (setting [4]) was determined as 11%; in the experiment with db/db mice (setting [5]) it was 18%. Besides, the inhibition in vivo at 10 mg/kg in experiment [1] (setting [6]) and in experiment [1] (setting [7]) was 17% each time. In the experiment with Zucker rats, the inhibition in vivo at 1 mg/kg was found to be 42%. For the same compound, the Emax at 0.1 µM turned out to be 98% in experiment [2] and 95% in experiment [3].
For the compound `CC(C)OC(=O)C(C)(C)Oc1ccc(C(=O)c2ccc(Cl)cc2)cc1` [Fenofibrate, fenofibrate, reference compound], the inhibition in vivo at 100 mg/kg in the experiment on Zucker rats (100 mg/kg once a day for 2 weeks) is 22%.
For `CCCCCCCN(CCOc1ccc(CC(OCCC)C(=O)O)cc1)C(=O)OC` (stereo not drawn) [Example 120, 3-{4-[2-(N-heptyl-N-methoxycarbonylamino)ethoxy]phenyl}-2-propoxypropionic acid], the inhibition in vivo at 1 mg/kg turned out to be 39% with db/db mice (setting [4]), 48% with db/db mice (setting [5]) and 28% with Zucker rats. For the same compound, the results for the inhibition in vivo at 10 mg/kg in experiment [1] (setting [6]) and in experiment [1] (setting [7]) were 25% and 28%, respectively. Further, the Emax at 0.1 µM stood at 90% in experiment [2] and 88% in experiment [3].
As for `CCCCCCCN(CCOc1ccc(CC(OCC)C(=O)O)cc1)C(=O)OCC(C)C` (stereo not drawn) [Example 71, 2-ethoxy-3-{4-[2-(N-heptyl-N-isobutyloxycarbonylamino)ethoxy]phenyl}propionic acid], the inhibition in vivo at 1 mg/kg is 28% in the experiment on db/db mice (setting [4]), 40% with db/db mice (setting [5]) and 28% with Zucker rats. Also, the inhibition in vivo at 10 mg/kg in experiment [1] (setting [6]) came to 10%; in experiment [1] (setting [7]), 12%. The Emax at 0.1 µM was 83% in experiment [2] and 85% in experiment [3].
Consider `C=CCCOC(=O)N(CCCCCCC)CCOc1ccc(CC(OCC)C(=O)O)cc1` (stereo not drawn) [Example 73, 3-(4-{2-[N-(3-butenyloxycarbonyl)-N-heptylamino]ethoxy}phenyl)-2-ethoxypropionic acid], for which the inhibition in vivo at 3 mg/kg is 30% in the experiment with db/db mice (setting [4]) and 43% in the experiment on db/db mice (setting [5]). The inhibition in vivo at 10 mg/kg in experiment [1] (setting [6]) and in experiment [1] (setting [7]) was 45% in each case. The inhibition in vivo at 1 mg/kg with Zucker rats was 34%. The Emax at 0.1 µM in experiment [2] was 99%; in experiment [3], 96%.
As for `CCCCOCCN(CCOc1ccc(CC(OCC)C(=O)O)cc1)C(=O)OC(C)C` (stereo not drawn) [Example 122, 3-(4-{2-[N-(2-butoxyethyl)-N-isopropoxycarbonylamino]ethoxy}phenyl)-2-ethoxypropionic acid], the inhibition in vivo at 3 mg/kg in the experiment on db/db mice (setting [4]) was found to be 14%; with db/db mice (setting [5]), 21%. In addition, the results for the inhibition in vivo at 10 mg/kg in experiment [1] (setting [6]) and in experiment [1] (setting [7]) were 9% and 10%, respectively. The inhibition in vivo at 1 mg/kg in the experiment on Zucker rats amounted to 2%. For the same compound, the Emax at 0.1 µM in experiment [2] was 92%; in experiment [3] it was 90%.
As to `CCCCCCCN(CCOc1ccc(CC(OC(C)C)C(=O)O)cc1)C(=O)OC(C)C` (stereo not drawn) [Example 125, 3-{4-[2-(N-heptyl-N-isopropoxycarbonylamino)ethoxy]phenyl}-2-isopropoxypropionic acid], the inhibition in vivo at 1 mg/kg in the experiment on db/db mice (setting [4]) is 42%; in the experiment on db/db mice (setting [5]), 64%; in the experiment on Zucker rats, 36%. Also, the inhibition in vivo at 10 mg/kg is 48% in experiment [1] (setting [6]) and 45% in experiment [1] (setting [7]). Further, the Emax at 0.1 µM was 97% in experiment [2] and 98% in experiment [3].
Consider `CCCCCCCN(CCOc1ccc(CC(OCC)C(=O)O)cc1)C(=O)OCc1ccccc1` (stereo not drawn) [Example 57, 3-{4-[2-(N-benzyloxycarbonyl-N-heptylamino)ethoxy]phenyl}-2-ethoxypropionic acid], for which the inhibition in vivo at 3 mg/kg with db/db mice (setting [4]) was 35%; in the experiment with db/db mice (setting [5]), 46%. In addition, the inhibition in vivo at 10 mg/kg was 43% in experiment [1] (setting [6]) and 41% in experiment [1] (setting [7]). Also, in the experiment with Zucker rats, the inhibition in vivo at 1 mg/kg came to 41%. Besides, the Emax at 0.1 µM in experiment [2] came out at 80%; in experiment [3] it was 75%.
Take `CCCCCCCN(CCOc1ccc(CC(OCC)C(=O)O)cc1)C(=O)OCCC` (stereo not drawn) [Example 59, 2-ethoxy-3-{4-[2-(N-heptyl-N-propoxycarbonylamino)ethoxy]phenyl}propionic acid]: the inhibition in vivo at 3 mg/kg in the experiment with db/db mice (setting [4]) was 18%; in the experiment with db/db mice (setting [5]), 21%. Moreover, the inhibition in vivo at 10 mg/kg in experiment [1] (setting [6]) amounted to 35%; in experiment [1] (setting [7]), 37%. Also, the inhibition in vivo at 1 mg/kg in the experiment on Zucker rats was 40%. For the same compound, the results for the Emax at 0.1 µM in experiment [2] and in experiment [3] were 88% and 77%, respectively.
On to `CCCCCCCN(CCOc1ccc(CC(OCC)C(=O)O)cc1)C(=O)Nc1ccc(F)cc1F` (stereo not drawn) [Example 2, 3-(4-{2-[3-(2,4-difluorophenyl)-1-heptylureido]ethoxy}phenyl)-2-ethoxypropionic acid], for which the inhibition in vivo at 10 mg/kg in the experiment with db/db mice (setting [4]) is 34%; with db/db mice (setting [5]) it was 53%; in experiment [1] (setting [6]) it was 29%; in experiment [1] (setting [7]), 30%; in the experiment on Zucker rats (10 mg/kg once a day for 2 weeks) it was 19%. Moreover, the values for the Emax at 0.1 µM in experiment [2] and in experiment [3] were 95% and 90%, respectively.
